Assay results reported in publication PMC7290235, “Regulation of Exopolysaccharide Production by ProE, a Cyclic-Di-GMP Phosphodiesterase in Pseudomonas aeruginosa PAO1” (Frontiers in Microbiology, 2020).

What was measured:
WspR = molecular target: T1, WspR (Pseudomonas aeruginosa, UniProt Q9HXT9); assay: HPLC of c-di-GMP formation; type: biochemical; conditions: 500 uM GTP, 5 uM enzyme, Tris-HCl pH 7.8, 250 mM NaCl, 25 mM KCl, 10 mM MgCl2, 37 C, 120 min
T1 construct: wspR in pET28b(+) (BamHI/HindIII), His tag, Ni-NTA purified; tag removal not mentioned

ProE = molecular target: T2, ProE (Pseudomonas aeruginosa, UniProt Q9HTQ9); assay: HPLC of pGpG formation, […] nm; type: biochemical; conditions: 50 uM c-di-GMP, 0.08 uM enzyme, Tris-HCl pH 8.0, 20 mM KCl, 5 mM MgCl2, 37 C, 20 min
T2 construct: gene PA5295; coding region in pET28b(+) (BamHI/HindIII), His tag, Ni-NTA purified; GGDEF 113-282, EAL 292-538; tag removal not mentioned
T2 sequence (Q9HTQ9 entry or part of it): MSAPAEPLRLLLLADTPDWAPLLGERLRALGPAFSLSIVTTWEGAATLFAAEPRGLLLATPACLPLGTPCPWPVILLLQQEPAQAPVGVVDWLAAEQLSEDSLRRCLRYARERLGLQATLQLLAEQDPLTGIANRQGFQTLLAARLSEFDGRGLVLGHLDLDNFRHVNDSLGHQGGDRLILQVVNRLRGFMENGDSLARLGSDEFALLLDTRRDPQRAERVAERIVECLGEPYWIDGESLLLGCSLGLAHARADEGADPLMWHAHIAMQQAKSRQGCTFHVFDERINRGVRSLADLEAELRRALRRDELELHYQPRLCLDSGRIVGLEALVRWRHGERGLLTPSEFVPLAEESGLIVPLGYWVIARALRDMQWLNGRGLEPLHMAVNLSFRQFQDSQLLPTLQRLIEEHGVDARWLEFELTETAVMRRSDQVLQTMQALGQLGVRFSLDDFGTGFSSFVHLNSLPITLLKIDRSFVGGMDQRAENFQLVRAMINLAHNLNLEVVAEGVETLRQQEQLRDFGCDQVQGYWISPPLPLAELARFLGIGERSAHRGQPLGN

T1 sequence (Q9HXT9 entry or part of it): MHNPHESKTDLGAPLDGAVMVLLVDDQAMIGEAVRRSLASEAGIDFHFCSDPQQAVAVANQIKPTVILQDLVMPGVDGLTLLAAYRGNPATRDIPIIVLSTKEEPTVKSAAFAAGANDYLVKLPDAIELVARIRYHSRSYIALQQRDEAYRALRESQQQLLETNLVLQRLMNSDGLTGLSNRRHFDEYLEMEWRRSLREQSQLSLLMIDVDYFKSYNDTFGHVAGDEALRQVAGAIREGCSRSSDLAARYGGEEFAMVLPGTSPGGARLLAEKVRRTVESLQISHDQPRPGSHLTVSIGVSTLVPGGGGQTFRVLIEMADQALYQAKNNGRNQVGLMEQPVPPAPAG

| Structure (SMILES) | HPLC of c-di-GMP formation (WspR) | HPLC of pGpG formation, 254 nm (ProE) |
| --- | --- | --- |
| Nc1nc2c(ncn2[C@@H]2O[C@H](COP(=O)(O)OP(=O)(O)OP(=O)(O)O)[C@@H](O)[C@H]2O)c(=O)[nH]1 [GTP] | the control protein WspR could convert most GTP into c-di-GMP |  |
| Nc1nc2c(ncn2[C@@H]2O[C@@H]3COP(=O)(O)O[C@H]4[C@@H](O)[C@H](n5cnc6c(=O)[nH]c(N)nc65)O[C@@H]4COP(=O)(O)O[C@H]3[C@H]2O)c(=O)[nH]1 [c-di-GMP] |  | HPLC analysis showed that the degradation product pGpG was produced |
